# In patent US6849455B1, “Enhanced recovery of transformed cells” (New York University, priority 2000, dated 2005):
# What was measured:
# E. coli = assay: Supplements to rich/selective media in RepFIC transformations; type: cell-based; settings: for effective as substitute for the L-cysteine effect in RepFIC transformations: supplement to rich media, glutathione 300 micrograms per ml; for increase in the number of transformants: supplement added to the selective medium
# C600 [1] = assay: Transformation of scL and scH RepFIC plasmid DNAs into C600; type: cell-based, E. coli; settings: supplement added after electroporation and/or during selection
# Protocol: The package consists of homocysteine, ferrous sulfate, and magnesium sulfate.
# To ascertain that the scL phenotype was heritable under all circumstances and viable, scL DNA was transferred into C600 by electroporation. Selection of transformants was carried out without additional supplements or in the presence of cysteine or glutathione. […] Thus, although an additional source of cysteine is still required under the conditions of this transformation, cysteine becomes toxic at the concentration that was previously used.
# In order to identify the contribution of co-transmitted molecules that are easily removed, scL DNA was in vitro salt-stripped before being transformed. […] Plasmid preparations are associated with several proteins, of about 32 kda in size, which could be the dam-methyltransferase (GenBank accession no. J01600). Therefore, it is possible that the dam-methyltransferase is one significant component removed by the salt treatment.
# The methylation reaction per se could have become limiting as a result of the removal of methyltransferase, and activation of the biosynthesis of S-adenosylmethionine (SAM), the methyl donor in the methylation reaction, could help overcome low enzyme levels in the cell. Homocysteine is a known co-inducer of the MetR regulon (Schell, 1993), and thus activates the synthesis of SAM (Palmer and Marinus, 1994). […]
# C600 [2] = assay: Plasmid yield after overnight growth with glycerol as carbon source; type: cell-based, E. coli; settings: homocysteine and ferrous sulfate supplements
# Protocol: (§1) Glycerol, when used as a carbon source, avoids catabolite repression. The plasmid was prepared from the following hosts grown overnight with the supplements homocysteine and ferrous sulfate, using glycerol as a carbon source: C600 containing the non-imprinted plasmid, the lon host Δlon-510 (containing the imprinted scL plasmid), and C600 containing the imprinted scL plasmid. […] One interpretation of the difference seen between lanes 3-4 and 5-6 is that when Lon is present (C600) and there is no catabolite repression, the post-replicative steps occur at a sufficient rate to adjust for the recovery of the final product, scH plasmid. When Lon is absent, stimulation of steps occurring after normal Lon-processing are ineffective because the substrate for these steps is insufficient.
# lon host Δlon-510 = assay: as above; type: cell-based, E. coli; settings: homocysteine and ferrous sulfate supplements
# Protocol: as §1
# C600 hosts = settings: additives: cysteine, cystine, or glutathione
# Source text: Single colonies that were normal in appearance, selected after transformation of C600 hosts in the presence of cysteine (Table 1, row 1) were resuspended in liquid medium. Aliquots were streaked onto spectinomycin-containing plates and spectinomycin plates with the following additives: cysteine, cystine, or glutathione.
# Single colonies selected after transformation of C600 hosts in the presence of cysteine (Table 1, row 1) were initially difficult to grow.
compound,measurement,setting,value
"CC(=O)NC(CS)C(=O)O (racemic) [-acetyl-D,L-cysteine, N-acetyl-D,L-cysteine]",effective as substitute for the L-cysteine effect in RepFIC transformations,E. coli,None of these was effective
"N[C@@H](CCS)C(=O)O [Homocysteine, homocysteine]",recovery of transformants with highly purified (salt-stripped) transforming DNA,C600 [1],rescued the transforming ability
"N[C@@H](CS(=O)(=O)O)C(=O)O [L0cysteic acid, L-cysteic acid]",effective as substitute for the L-cysteine effect in RepFIC transformations,E. coli,None of these was effective
N=C(N)NCCC[C@H](N)C(=O)O [L-arginine],effective as substitute for the L-cysteine effect in RepFIC transformations,E. coli,None of these was effective
N[C@@H](CS)C(=O)O [L-cysteine],recovery of transformants with highly purified (salt-stripped) transforming DNA,C600 [1],no longer helped in the recovery of transformants
same,optimal concentration of cysteine,"E. coli; selective medium, RepFIC transformation",400 micrograms per ml
same,increase in the number of transformants,E. coli; RepFIC,~10^3 fold
N[C@@H](CSSC[C@H](N)C(=O)O)C(=O)O [L-cystine],effective as substitute for the L-cysteine effect in RepFIC transformations,E. coli,None of these was effective
CSCC[C@H](N)C(=O)O [L-methionine],effective as substitute for the L-cysteine effect in RepFIC transformations,E. coli,None of these was effective
"O=S(=O)([O-])[O-].[Mg+2] [Magnesium sulfate, magnesium sulfate]",increase in the transformation efficiency,"E. coli; supplement added after electroporation, RepFIC",no effect
same,increase in the number of transformants,E. coli; RepFIC,no effect
OCC(O)CO [glycerol],increase in yield of plasmid,C600 [2],5 to 10 fold
same,increase in yield of plasmid,lon host Δlon-510,5 to 10 fold
glutamyl-cysteinylglycine [glutathione],number of colonies obtained,E. coli; glutathione 300 micrograms per ml compared to 400 micrograms cysteine per ml,the same as with cysteine
same,effective as substitute for the L-cysteine effect in RepFIC transformations,E. coli,effective
same,growth of cysteine-selected transformants on spectinomycin plates with additive,C600 hosts,only grew on the glutathione-supplemented plates
